Key:
Conditions in all cases: separate experiment, FIG. 9
[1] = system: Hep 3B cells; assay: Alpha-galactosidase uptake by Hep3B cells (hepatocytes) in vitro; assay type: cell-based
Procedure: Muscles are the major target tissues for enzyme replacement therapy of Pompe disease due to the lack of acid alpha-glucosidase. To determine if the M6P/IGF-II receptor-mediated lysosomal enzyme uptake pathway can be augmented by insulin/glucose, the effects of insulin/glucose were analyzed on induced muscle cells (myotubes) in vitro. L6 myoblasts (or induced myotubes) and Hep3B cells were cultured in 6-well dishes. Rat L6 myoblasts (ATCC# CRL-1458) were cultured at 37° C. under 5% CO2 in VitaCell DMEM media (ATCC# 30-2002) with 4 mM L-glutamine, 10% fetal bovine serum (Gibco #16000-044) and 1× penicillin/streptomycin. Once confluent, cells were switched to VitaCell DMEM plus 2% horse sera (Gibco# 26050-088) and 1× penicillin/streptomycin. Media were changed every 3 days and at day 9-10, myotubes could be observed as multinuclear tubes. About 30-40% of the myoblasts formed myotubes. Cells were used for uptake assay at day 10. Hep3B cells were grown in MEM-eagle (Gibco# 11960-044) with 10% FBS, 1×NEAA, 1× sodium pyruvate and 1× penicillin/streptomycin.
Before the uptake assay, the cells were washed once with PBS and once with DMEM minus glucose media (Gibco#11966-025), then the cells were starved in 1.5 ml of DMEM minus glucose media for 1 hour at 37° C. […]

[2] = system: normal fibroblast cells; assay: Alpha-galactosidase uptake by normal fibroblasts in vitro; assay type: cell-based, human
Procedure: Before the uptake assay, the cells were washed once with PBS and once with DMEM minus glucose media (Gibco#11966-025), then the cells were starved in 1.5 ml of DMEM minus glucose media for 1 hour at 37° C. […] The lysates were assay for alpha-galactosidase activity with 4-MU-galactoside (Sigma #M-7633) as substrate and normalized to protein content.
Human skin fibroblasts (ATCC# CRL-1502) were grown at 37° C. under 5% CO2 in MEM with Earle's balanced salts, 2× essential and non-essential amino acids (NEAA) (Gibco# 11130-051, 11140-050) and vitamin (Gibco# 1120-052), 20% fetal bovine serum (Gibco# 16000-044, not heat-inactivated) plus 1× penicillin/streptomycin. The pH of the media was adjusted to approximately 7 with sodium bicarbonate (Gibco #25080-094).

[3] = system: Fabry fibroblast cells; assay: Alpha-galactosidase uptake by Fabry fibroblasts in vitro; assay type: cell-based
Procedure: Before the uptake assay, the cells were washed once with PBS and once with DMEM minus glucose media (Gibco#11966-025), then the cells were starved in 1.5 ml of DMEM minus glucose media for 1 hour at 37° C. After starvation, the cells were switched to uptake media (DMEM with or without glucose, plus 4 mg/ml BSA, 2.5 mM beta-glycerophosphate (Sigma #G-6376), 25 mM Hepes, pH 6.8. Insulin (Calbiochem, #40769), M6P (Sigma # M-6876) and 2 μg/ml recombinant human alpha-galactosidase (as a model protein because of its better M6P phosphylation) were added as indicated in FIGS. 7A and 7B. Uptake of enzyme was continued for 4 hours at 37° C. After uptake, the cells were washed twice with PBS containing 1 mM M6P and once with PBS, then lysed in alpha-galactosidase assay buffer (50 mM sodium citrate, […]) plus 1% Triton X-100 and protease inhibitors. The lysates were assay for alpha-galactosidase activity with 4-MU-galactoside (Sigma #M-7633) as substrate and normalized to protein content.
Human skin fibroblasts (ATCC# CRL-1502) were grown at 37° C. under 5% CO2 in MEM with Earle's balanced salts, 2× essential and non-essential amino acids (NEAA) (Gibco# 11130-051, 11140-050) and vitamin (Gibco# 1120-052), 20% fetal bovine serum (Gibco# 16000-044, not heat-inactivated) plus 1× penicillin/streptomycin. […]

insulin: Insulin (Calbiochem, #40769)
about 200%: alpha-galactosidase uptake by Hep 3B cells increased to [1] | alpha-galactosidase uptake by normal fibroblast cells increased to [2] | alpha-galactosidase uptake by Fabry fibroblast cells increased to [3]

From patent publication US7658916B2, “Methods of enhancing lysosomal storage disease therapy by modulation of cell surface receptor density” (Genzyme Corporation, priority 2002, dated 2010)
